Results as given in paper PMC12412615, “Tailored SirReal-type inhibitors enhance SIRT2 inhibition through ligand stabilization and disruption of NAD^+ co-factor binding” (RSC Medicinal Chemistry, 2025).

Tests used:
human SIRT3 = target: T1, human SIRT3 (Homo sapiens, UniProt Q9NTG7); experiment: Fluorescence-based sirtuin subtype selectivity assay, SIRT3, single dose 50 μM; assay type: biochemical; conditions: 50 μM compound; mean, n = 2
T1 construct: purchased Reaction Biology Corporation (Malvern, USA), contract assay
T1 sequence (Q9NTG7 1-399): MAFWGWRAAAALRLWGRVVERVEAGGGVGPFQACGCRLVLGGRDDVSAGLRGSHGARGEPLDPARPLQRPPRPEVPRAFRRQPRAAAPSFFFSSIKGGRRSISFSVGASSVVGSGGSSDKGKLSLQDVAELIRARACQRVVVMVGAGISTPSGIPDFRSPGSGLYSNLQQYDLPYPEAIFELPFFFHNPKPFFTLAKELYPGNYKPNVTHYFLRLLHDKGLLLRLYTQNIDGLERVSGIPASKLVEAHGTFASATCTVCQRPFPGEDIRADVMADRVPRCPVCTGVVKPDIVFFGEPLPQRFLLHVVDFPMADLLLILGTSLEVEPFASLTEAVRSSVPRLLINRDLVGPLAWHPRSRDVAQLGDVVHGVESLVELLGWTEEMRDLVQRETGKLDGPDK
Method: (§1) IC50 values against SIRT2 are given as mean with standard deviations (n = 3). Inhibition percentages at 50 μM for SIRT1, 3 and 5 are given as mean without standard deviations (n = 2)
(§2) The determination of subtype selectivity against SIRT1, 3 and 5 was performed by measuring the residual enzyme activity after treatment with the corresponding inhibitor at a fixed concentration of 50 μM and subsequent calculation of the percentage inhibition.
(§3) The determination of inhibitory activity on the corresponding sirtuin enzymes was carried out based on a fluorescence-based assay commissioned by Reaction Biology Corporation (Malvern, USA) following an internal experimental protocol. Test substances were prepared in DMSO, delivered into the respective enzyme mixture (prepared with reaction buffer: Tris-HCl, pH = 8) and incubated for 10 minutes at 30 °C. Subsequently the substrate mixture (NAD^+ and a 7-amino-4-methylcoumarin-based fluorogenic peptide substrate) was added to initiate the deacetylation reaction. After 2 hours incubation at 30 °C, 2 mM nicotinamide (universal sirtuin inhibitor, to stop the reaction) and protease-based developer (to generate fluorescence by the cleavage of 7-amino-4-methylcoumarin) was added. At 30 °C 1 hour later, the respective fluorescence was measured (extinction/emission = 360 nm/460 nm). The inhibitory effect of the test compounds is indirectly proportional to the amount of converted fluorescent substrate standardized as 100% activity of the control without inhibitor. The test substances were tested in 10-dose IC50 triplicate mode, with 3-fold serial dilution starting at 50 μM final reaction concentration and if necessary, starting at 100 μM. For each serially diluted replicate of the triplicate, an IC50 value was determined by sigmoidal curve fitting, resulting in three IC50 values, from which the mean and corresponding standard deviation were subsequently calculated. Data processing was performed based on Prism 8.0.2 software (GraphPad Software, Boston, USA). Subtype selectivity on SIRT1, SIRT3 and SIRT5 was evaluated in a single dose duplicate mode at 50 μM final test compound concentration according to previous outlined internal protocol of Reaction Biology Corporation by determining the enzyme activity of the respective sirtuins in % (no inhibitor control as 100% activity).

human SIRT1 = target: T2, human SIRT1 (Homo sapiens, UniProt Q96EB6); experiment: Fluorescence-based sirtuin subtype selectivity assay, SIRT1, single dose 50 μM; assay type: biochemical; conditions: 50 μM compound; mean, n = 2
T2 construct: purchased Reaction Biology Corporation (Malvern, USA), contract assay
T2 sequence (Q96EB6 1-747): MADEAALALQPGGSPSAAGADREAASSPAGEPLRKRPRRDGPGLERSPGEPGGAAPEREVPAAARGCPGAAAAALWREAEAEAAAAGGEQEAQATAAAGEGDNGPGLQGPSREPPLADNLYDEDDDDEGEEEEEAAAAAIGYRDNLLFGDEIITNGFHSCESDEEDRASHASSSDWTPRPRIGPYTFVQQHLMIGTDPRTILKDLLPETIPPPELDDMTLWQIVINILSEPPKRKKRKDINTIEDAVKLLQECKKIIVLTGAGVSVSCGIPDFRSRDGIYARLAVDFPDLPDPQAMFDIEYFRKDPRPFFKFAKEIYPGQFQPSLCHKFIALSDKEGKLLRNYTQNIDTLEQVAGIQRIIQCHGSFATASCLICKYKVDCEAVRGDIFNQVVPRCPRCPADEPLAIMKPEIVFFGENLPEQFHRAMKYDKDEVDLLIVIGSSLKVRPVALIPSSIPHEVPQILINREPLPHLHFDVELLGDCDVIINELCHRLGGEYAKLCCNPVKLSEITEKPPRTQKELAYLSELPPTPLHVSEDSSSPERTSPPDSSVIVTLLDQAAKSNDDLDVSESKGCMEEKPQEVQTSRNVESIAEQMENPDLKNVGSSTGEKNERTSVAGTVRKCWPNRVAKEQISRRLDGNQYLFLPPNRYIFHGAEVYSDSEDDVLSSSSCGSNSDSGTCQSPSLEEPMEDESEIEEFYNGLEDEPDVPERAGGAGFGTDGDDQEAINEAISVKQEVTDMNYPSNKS
Method: as §1, §2, §3

SIRT2 = target: T3, SIRT2 (Homo sapiens, UniProt Q8IXJ6); experiment: Fluorescence thermal shift assay of SIRT2
T3 sequence (Q8IXJ6 1-389): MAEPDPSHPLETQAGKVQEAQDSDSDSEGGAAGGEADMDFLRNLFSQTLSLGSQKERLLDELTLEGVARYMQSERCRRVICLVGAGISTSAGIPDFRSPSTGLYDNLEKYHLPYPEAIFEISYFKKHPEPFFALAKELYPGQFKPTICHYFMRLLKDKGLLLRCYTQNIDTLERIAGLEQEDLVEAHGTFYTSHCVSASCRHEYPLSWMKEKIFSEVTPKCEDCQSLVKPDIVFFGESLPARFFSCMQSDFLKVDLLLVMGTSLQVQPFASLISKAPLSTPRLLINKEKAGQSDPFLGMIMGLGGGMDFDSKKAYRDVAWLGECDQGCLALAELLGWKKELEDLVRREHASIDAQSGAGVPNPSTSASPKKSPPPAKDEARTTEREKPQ
Method: The thermal stability of SIRT2 was determined in the presence of 10 μM and 30 μM inhibitor and in the presence and absence of 2.5 mM co-factor NAD^+.
All melting temperature shifts measured were referenced to the melting temperature of SIRT2 without inhibitor, also in the presence and absence of the co-factor.
Fluorescence thermal shift assays were performed in white 96-well plates (Hard-Shell PCR Plates, BioRad, USA) with a total volume of 20 μL per well and a final DMSO concentration of 5% (v/v), following a published protocol.[19,21] […] The compounds were prepared as 10 mM stock solutions in DMSO and diluted in the assay such that a final DMSO concentration of 5% (v/v) was achieved. If necessary, NAD^+ was added to a final concentration of 2.5 mM. […] Melting temperatures were determined using GraphPad Prism, following a published procedure.[52]

[1] = target: T4, NanoLuc-SIRT2 fusion construct (Homo sapiens, UniProt Q8IXJ6); experiment: NanoBRET cellular target engagement assay in HEK293T cells; assay type: cell-based; conditions: stable HEK293T cell line expressing NanoLuc-SIRT2; 2 μM tracer; 2 hours at 37 °C; read-out: NanoBRET EC50 (cellular SIRT2 target engagement)
T4 construct: HEK293T cells expressing the NanoLuc-tagged SIRT2(50-356) fusion protein were used; expressed in transfected cells; transient transfection for SH10
T4 sequence (Q8IXJ6 50-356): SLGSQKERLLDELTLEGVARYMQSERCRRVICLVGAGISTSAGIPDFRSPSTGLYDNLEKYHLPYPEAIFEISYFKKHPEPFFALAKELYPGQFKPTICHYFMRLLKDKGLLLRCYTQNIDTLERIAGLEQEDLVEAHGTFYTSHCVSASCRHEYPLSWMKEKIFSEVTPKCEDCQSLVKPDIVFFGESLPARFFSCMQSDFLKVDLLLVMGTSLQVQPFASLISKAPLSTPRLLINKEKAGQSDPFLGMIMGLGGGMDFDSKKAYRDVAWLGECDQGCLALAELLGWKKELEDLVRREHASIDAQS
Method: For the assay, cells were trypsinized, resuspended in Opti-MEM® reduced serum medium, and adjusted to a concentration of 2 × 10^5 cells per mL. […] Serially diluted inhibitor and tracer were added to the cell suspension, and 100 μL were seeded into 96-well white, sterile, nonbinding surface plates. […] For BRET measurements, NanoBRET NanoGlo Substrate (Promega cat. #N1571) was added to the wells according to the manufacturer's protocol. […] The BRET ratio was calculated as the ratio of acceptor to donor signal, and data were normalized to vehicle-treated controls. Apparent intracellular binding affinities (EC50 values) were determined by fitting dose–response curves using nonlinear regression analysis in GraphPad Prism.

In the case of `Cc1cc(C)nc(SCC(=O)Nc2cccc(COc3ccc(NC(=O)c4cnn(C)c4)c(Cl)c3)c2)n1` [Compound 29, N-(2-Chloro-4-((3-(2-((4,6-dimethylpyrimidin-2-yl)thio)acetamido)benzyl)oxy)phenyl)-1-methyl-1H-pyrazole-4-carboxamide], the inhibition at 50 µM (human SIRT3) is reported as 26%, the inhibition at 50 µM (human SIRT1) is reported as 12% and the “NAD+ dependency of inhibitor-induced SIRT2 melting temperature increase” value (SIRT2; presence and absence of 2.5 mM NAD+) is reported as “increases the melting temperature of SIRT2 independently of NAD^+”. It also gave a ΔTm at 30 µM (SIRT2; read-out: ΔT, increase in the melting temperature of SIRT2) of 6.5 °C and an EC50 [1] of 15 nM.
